In patent US11497752B2, “Compounds and uses thereof” (Foghorn Therapeutics Inc., priority 2018, dated 2022):

Experiments:
BRG-1 = BRG-1 (Homo sapiens, UniProt P51532); experiment: ATPase catalytic activity of BRG-1 (ADP-Glo in vitro biochemical assay)
BRM = BRM (Homo sapiens, UniProt P51531); experiment: ATPase catalytic activity of BRM (ADP-Glo in vitro biochemical assay)
BRM, sequence (P51531 whole entry): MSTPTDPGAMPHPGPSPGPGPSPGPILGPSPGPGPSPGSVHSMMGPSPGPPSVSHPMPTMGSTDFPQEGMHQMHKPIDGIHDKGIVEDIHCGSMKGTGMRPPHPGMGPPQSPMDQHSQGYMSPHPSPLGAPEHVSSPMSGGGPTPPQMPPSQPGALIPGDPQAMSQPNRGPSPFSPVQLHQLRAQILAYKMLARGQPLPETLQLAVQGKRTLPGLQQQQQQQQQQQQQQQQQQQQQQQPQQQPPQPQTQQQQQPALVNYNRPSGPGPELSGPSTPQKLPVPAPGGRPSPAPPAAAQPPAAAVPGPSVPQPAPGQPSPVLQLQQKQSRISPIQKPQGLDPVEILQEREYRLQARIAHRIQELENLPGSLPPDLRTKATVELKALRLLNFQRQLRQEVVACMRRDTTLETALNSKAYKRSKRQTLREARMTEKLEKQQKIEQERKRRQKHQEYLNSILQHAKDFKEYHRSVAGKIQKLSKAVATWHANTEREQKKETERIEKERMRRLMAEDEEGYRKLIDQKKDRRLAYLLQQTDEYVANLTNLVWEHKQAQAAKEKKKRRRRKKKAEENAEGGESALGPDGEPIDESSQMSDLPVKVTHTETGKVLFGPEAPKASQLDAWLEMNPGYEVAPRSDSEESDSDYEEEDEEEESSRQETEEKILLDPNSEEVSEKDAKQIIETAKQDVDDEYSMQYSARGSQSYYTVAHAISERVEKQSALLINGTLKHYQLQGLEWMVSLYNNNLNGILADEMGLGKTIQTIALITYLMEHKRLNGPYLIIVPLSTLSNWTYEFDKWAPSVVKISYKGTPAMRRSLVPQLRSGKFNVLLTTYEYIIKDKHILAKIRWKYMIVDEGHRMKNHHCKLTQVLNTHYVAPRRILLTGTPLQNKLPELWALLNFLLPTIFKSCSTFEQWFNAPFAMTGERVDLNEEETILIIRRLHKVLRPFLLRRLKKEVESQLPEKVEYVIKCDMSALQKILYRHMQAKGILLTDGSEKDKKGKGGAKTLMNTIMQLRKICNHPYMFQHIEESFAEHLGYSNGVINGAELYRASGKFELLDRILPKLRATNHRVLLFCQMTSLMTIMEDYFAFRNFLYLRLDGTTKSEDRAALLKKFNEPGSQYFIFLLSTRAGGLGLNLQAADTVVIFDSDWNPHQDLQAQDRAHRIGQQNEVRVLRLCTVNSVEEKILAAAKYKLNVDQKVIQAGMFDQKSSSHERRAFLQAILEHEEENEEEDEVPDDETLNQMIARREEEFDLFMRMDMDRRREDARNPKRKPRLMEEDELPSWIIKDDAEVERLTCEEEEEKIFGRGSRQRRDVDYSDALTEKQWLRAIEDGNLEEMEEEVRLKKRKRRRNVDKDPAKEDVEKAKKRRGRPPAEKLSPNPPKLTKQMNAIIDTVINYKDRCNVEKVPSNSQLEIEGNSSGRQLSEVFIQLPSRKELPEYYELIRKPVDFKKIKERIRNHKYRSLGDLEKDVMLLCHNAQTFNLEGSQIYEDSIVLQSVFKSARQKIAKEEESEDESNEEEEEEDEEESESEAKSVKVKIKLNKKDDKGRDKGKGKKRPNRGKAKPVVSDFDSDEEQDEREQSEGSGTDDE

BRG-1, sequence (P51532 whole entry): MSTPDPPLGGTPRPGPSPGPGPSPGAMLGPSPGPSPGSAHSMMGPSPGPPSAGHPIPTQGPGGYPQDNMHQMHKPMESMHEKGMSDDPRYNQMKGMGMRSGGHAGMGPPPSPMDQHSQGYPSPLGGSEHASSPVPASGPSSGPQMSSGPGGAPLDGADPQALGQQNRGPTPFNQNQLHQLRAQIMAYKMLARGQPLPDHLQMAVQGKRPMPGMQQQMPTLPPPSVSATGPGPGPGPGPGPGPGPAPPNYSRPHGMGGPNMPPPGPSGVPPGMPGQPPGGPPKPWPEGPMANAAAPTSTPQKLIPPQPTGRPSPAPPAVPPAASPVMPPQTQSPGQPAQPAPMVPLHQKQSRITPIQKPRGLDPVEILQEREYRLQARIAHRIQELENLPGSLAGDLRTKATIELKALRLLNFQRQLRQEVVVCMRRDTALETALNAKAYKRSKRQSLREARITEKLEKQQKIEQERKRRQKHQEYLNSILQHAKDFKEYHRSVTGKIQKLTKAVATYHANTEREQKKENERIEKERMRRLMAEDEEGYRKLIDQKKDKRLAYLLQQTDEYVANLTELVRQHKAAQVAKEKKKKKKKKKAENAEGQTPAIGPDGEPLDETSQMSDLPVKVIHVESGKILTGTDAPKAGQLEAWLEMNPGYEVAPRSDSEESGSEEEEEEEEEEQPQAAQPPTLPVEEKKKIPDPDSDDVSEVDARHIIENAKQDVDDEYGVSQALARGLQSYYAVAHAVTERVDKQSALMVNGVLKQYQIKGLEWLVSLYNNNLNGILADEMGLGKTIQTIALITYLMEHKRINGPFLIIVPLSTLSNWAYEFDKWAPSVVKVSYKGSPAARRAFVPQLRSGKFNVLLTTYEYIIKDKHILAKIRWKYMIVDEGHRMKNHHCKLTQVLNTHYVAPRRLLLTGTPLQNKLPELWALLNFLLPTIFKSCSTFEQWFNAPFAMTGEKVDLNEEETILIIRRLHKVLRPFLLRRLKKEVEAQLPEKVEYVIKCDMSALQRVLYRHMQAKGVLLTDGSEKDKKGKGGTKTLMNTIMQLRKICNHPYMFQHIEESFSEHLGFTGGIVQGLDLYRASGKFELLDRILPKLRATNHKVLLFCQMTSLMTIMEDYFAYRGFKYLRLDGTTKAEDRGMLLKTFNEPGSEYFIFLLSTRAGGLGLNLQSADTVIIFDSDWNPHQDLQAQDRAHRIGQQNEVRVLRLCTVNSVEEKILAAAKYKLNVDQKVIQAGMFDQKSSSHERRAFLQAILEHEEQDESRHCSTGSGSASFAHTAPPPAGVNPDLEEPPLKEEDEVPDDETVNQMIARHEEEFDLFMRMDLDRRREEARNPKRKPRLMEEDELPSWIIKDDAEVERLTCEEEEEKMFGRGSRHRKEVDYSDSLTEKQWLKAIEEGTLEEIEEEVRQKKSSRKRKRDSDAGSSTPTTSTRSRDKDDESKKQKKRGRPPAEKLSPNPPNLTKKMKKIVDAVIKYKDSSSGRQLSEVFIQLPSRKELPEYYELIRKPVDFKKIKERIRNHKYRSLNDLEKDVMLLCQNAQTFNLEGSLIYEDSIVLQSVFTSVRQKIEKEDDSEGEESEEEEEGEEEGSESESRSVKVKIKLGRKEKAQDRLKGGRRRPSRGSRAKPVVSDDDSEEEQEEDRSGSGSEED

Structure (SMILES)	IC50 (BRG-1) [nM]	BRG1 Max % Inhibition (BRG-1; Table 6) [%]	IC50 (BRM) [nM]	BRM Max % Inhibition (BRM; Table 6) [%]	BRG1 Max % Inhibition (BRG-1; Table 5) [%]	BRM Max % Inhibition (BRM; Table 5) [%]
CSCC[C@H](NC(=O)c1cccc(C(C)(C)O)c1)C(=O)Nc1nc(-c2ccccc2)cs1 [Compound 55, (S)-3-(2-hydroxypropan-2-yl)-N-(4-(methylthio)-1-oxo-1-((4-phenylthiazol-2-yl)amino)butan-2-yl)benzamide]	1000 to 10000		1000 to 10000		>80	>90
O=C(CNC(=O)c1cnc2c(c1)CCCN2)Nc1nc(-c2cccc(-c3ccncc3)c2)cs1 [Compound 102, N-(2-oxo-2-((4-(3-(pyridin-4-yl)phenyl)thiazol-2-yl)amino)ethyl)-5,6,7,8-tetrahydro-1,8-naphthyridine-3-carboxamide]	100 to 1000	>80	100 to 1000	>80		
CSCC[C@H](NC(=O)c1ccc2[nH]cnc2c1)C(=O)Nc1nc(-c2ccccc2)cs1 [Compound 66, (S)—N-(4-(methylthio)-1-oxo-1-((4-phenylthiazol-2-yl)amino)butan-2-yl)-1H-benzo[d]imidazole-5-carboxamide]	> 10000		> 10000		>50	>70
COc1ccc(C(=O)N[C@@H](CCSC)C(=O)Nc2nc(-c3ccccc3)cs2)cc1 [Compound 67, 4-methoxy-N-[(1S)-3-methylsulfanyl-1-[(4-phenylthiazol-2-yl)carbamoyl]propyl]benzamide]	> 10000		> 10000		>70	>70
CSCC[C@H](NC(=O)c1ccc(O)cc1)C(=O)Nc1nc(-c2ccccc2)cs1 [Compound 53, 4-hydroxy-N-[(1S)-3-methylsulfanyl-1-[(4-phenylthiazol-2-yl)carbamoyl]propyl]benzamide]	1000 to 10000		1000 to 10000			
CN(C)CCn1ccc2ccc(-c3csc(NC(=O)CNC(=O)c4ccc(N)cc4)n3)cc2c1=O [Compound 167, 4-amino-N-(2-((4-(2-(2-(dimethylamino)ethyl)-1-oxo-1,2-dihydroisoquinolin-7-yl)thiazol-2-yl)amino)-2-oxoethyl)benzamide]	100 to 1000	>95	100 to 1000	>95		
CS(=O)(=O)NCc1cccc(-c2csc(NC(=O)CNC(=O)c3cccc(S(C)(=O)=O)c3)n2)c1 [Compound 94, N-(2-((4-(3-(methylsulfonamidomethyl)phenyl)thiazol-2-yl)amino)-2-oxoethyl)-3-(methylsulfonyl)benzamide]	1000 to 10000	>90	100 to 1000	>95		
CN1CCN(c2cccc(-c3csc(NC(=O)CNC(=O)c4ccc(N)cc4)n3)c2)CC1=O [Compound 204, 4-amino-N-[2-[[4-[3-(4-methyl-3-oxo-piperazin-1-yl)phenyl]thiazol-2-yl]amino]-2-oxo-ethyl]benzamide]	100 to 1000	>70	100 to 1000	>80		
CS(=O)(=O)c1cccc(C(=O)NCC(=O)Nc2nc(-c3cccc(C4CCOCC4)c3)cs2)c1 [Compound 91, 3-(methylsulfonyl)-N-(2-oxo-2-((4-(3-(tetrahydro-2H-pyran-4-yl)phenyl)thiazol-2-yl)amino)ethyl)benzamide]	1000 to 10000	>90	100 to 1000	>95		
COC(=O)c1cccc(-c2csc(NC(=O)CNC(=O)c3cccc(S(=O)(=O)N(C)C)c3)n2)c1 [Compound 9, methyl 3-[2-[[2-[[3-(dimethylsulfamoyl)benzoyl]amino]acetyl]amino]thiazol-4-yl]benzoate]	< 1000		< 1000		>60	>90
NC[C@H]1CC[C@@H](c2cccc(-c3csc(NC(=O)CNC(=O)c4ccc(N)cc4)n3)c2)CC1 [Compound 175, 4-amino-N-(2-((4-(3-((1s,4s)-4-(aminomethyl)cyclohexyl)phenyl)thiazol-2-yl)amino)-2-oxoethyl)benzamide]	100 to 1000	>80	100 to 1000	>90		

The remaining lines, values ahead:

IC50 (BRG-1) [nM]	BRG1 Max % Inhibition (BRG-1; Table 6) [%]	IC50 (BRM) [nM]	BRM Max % Inhibition (BRM; Table 6) [%]	BRG1 Max % Inhibition (BRG-1; Table 5) [%]	BRM Max % Inhibition (BRM; Table 5) [%]	Structure (SMILES)
< 100	>95	< 100	>95			CC(=O)N(C)c1cc(-c2cccc(-c3csc(NC(=O)CNC(=O)c4ccc(N)cc4)n3)c2)ccn1 [Compound 183, 4-amino-N-(2-((4-(3-(2-(N-methylacetamido)pyridin-4-yl)phenyl)thiazol-2-yl)amino)-2-oxoethyl)benzamide]
< 100	>95	< 100	>95			CNC(=O)CN(C)c1cc(-c2cccc(-c3csc(NC(=O)CNC(=O)c4ccc(N)cc4)n3)c2)ccn1 [Compound 202, 4-amino-N-[2-[[4-[3-[2-[methyl-[2-(methylamino)-2-oxo-ethyl]amino]-4-pyridyl]phenyl]thiazol-2-yl]amino]-2-oxo-ethyl]benzamide]
< 100	>95	< 100	>95			O=C(CNC(=O)c1ccc2c(c1)CCN2)Nc1nc(-c2cccc(-c3ccncc3)c2)cs1 [Compound 95, N-(2-oxo-2-((4-(3-(pyridin-4-yl)phenyl)thiazol-2-yl)amino)ethyl)indoline-5-carboxamide]
100 to 1000	>80	< 100	>80			CS(=O)(=O)c1cccc(C(=O)NCC(=O)Nc2nc(-c3cccc(-c4ccncc4)c3)cs2)c1 [Compound 89, 3-(methylsulfonyl)-N-(2-oxo-2-((4-(3-(pyridin-4-yl)phenyl)thiazol-2-yl)amino)ethyl)benzamide]
< 100	>95	< 100	>95			COC(=O)c1cc(-c2cccc(-c3csc(NC(=O)CNC(=O)c4ccc(N)cc4)n3)c2)ccn1 [Compound 181, methyl 4-(3-(2-(2-(4-aminobenzamido)acetamido)thiazol-4-yl)phenyl)picolinate]
< 100	>95	< 100	>95			COc1cc(-c2cccc(-c3csc(NC(=O)CNC(=O)c4ccc(N)cc4)n3)c2)ccn1 [Compound 146, 4-amino-N-(2-((4-(3-(2-methoxypyridin-4-yl)phenyl)thiazol-2-yl)amino)-2-oxoethyl)benzamide]
100 to 1000	>90	100 to 1000	>90			Nc1ccc(C(=O)NCC(=O)Nc2nc(-c3cccc(-c4ccccc4F)c3)cs2)cc1 [Compound 142, 4-amino-N-(2-((4-(2′-fluoro-[1,1′-biphenyl]-3-yl)thiazol-2-yl)\amino)-2-oxoethyl)benzamide]
< 100	>95	< 100	>95			CSCC[C@H](NC(=O)c1ccc(N)cc1)C(=O)Nc1nc(-c2cccc(-c3ccnc(C)c3)c2)cs1 [Compound 214, (S)-4-amino-N-(1-((4-(3-(2-methylpyridin-4-yl)phenyl)thiazol-2-yl)amino)-4-(methylthio)-1-oxobutan-2-yl)benzamide]
100 to 1000	>80	100 to 1000	>80			Nc1ccc(C(=O)NCC(=O)Nc2nc(-c3cccc(-c4ccn(CC(F)(F)F)n4)c3)cs2)cc1 [Compound 151, 4-amino-N-(2-oxo-2-((4-(3-(1-(2,2,2-trifluoroethyl)-1H-pyrazol-3-yl)phenyl)thiazol-2-yl)amino)ethyl)benzamide]
100 to 1000	>90	100 to 1000	>90			CC(=O)N(C)Cc1ccc(-c2cccc(-c3csc(NC(=O)CNC(=O)c4ccc(N)cc4)n3)c2)cc1 [Compound 138, 4-amino-N-(2-((4-(4′-((N-methylacetamido)methyl)-[1,1′-biphenyl]-3-yl)thiazol-2-yl)amino)-2-oxoethyl)benzamide]
100 to 1000	>90	100 to 1000	>95			CNCc1cc(-c2cccc(-c3csc(NC(=O)CNC(=O)c4ccc(N)cc4)n3)c2)ccn1 [Compound 196, 4-amino-N-[2-[[4-[3-[2-(methylaminomethyl)-4-pyridyl]phenyl]thiazol-2-yl]amino]-2-oxo-ethyl]benzamide]
100 to 1000	>95	100 to 1000	>90			NCC1CC=C(c2cccc(-c3csc(NC(=O)CNC(=O)c4ccc(N)cc4)n3)c2)CC1 (stereo not drawn) [Compound 158, 4-amino-N-(2-((4-(4′-(aminomethyl)-2′,3′,4′,5′-tetrahydro-[1,1′-biphenyl]-3-yl)thiazol-2-yl)amino)-2-oxoethyl)benzamide]
100 to 1000	>90	100 to 1000	>90			Cc1nnc(C(=O)NC(C)(C)c2cc(-c3cccc(-c4csc(NC(=O)CNC(=O)c5ccc(N)cc5)n4)c3)ccn2)o1 [Compound 215, N-[1-[4-[3-[2-[[2-[(4-aminobenzoyl)amino]acetyl]amino]thiazol-4-yl]phenyl]-2-pyridyl]-1-methyl-ethyl]-5-methyl-1,3,4-oxadiazole-2-carboxamide]
< 100	>95	< 100	>95			Nc1ccc(C(=O)NCC(=O)Nc2nc(-c3cccc(-c4ccncn4)c3)cs2)cc1 [Compound 227, 4-amino-N-[2-oxo-2-[[4-(3-pyrimidin-4-ylphenyl)thiazol-2-yl]amino]ethyl]benzamide]
100 to 1000	>80	100 to 1000	>90			Nc1ccc(C(=O)NCC(=O)Nc2nc(-c3cccc(-c4cccc(F)c4)c3)cs2)cc1 [Compound 152, 4-amino-N-(2-((4-(3′-fluoro-[1,1′-biphenyl]-3-yl)thiazol-2-yl)amino)-2-oxoethyl)benzamide]
